# Data from patent US7087649B2, “Methods for preventing and treating diseases and conditions associated with cellular stress” (Eisai Co., Ltd., priority 2001, dated 2006).
# Tests used:
# [1] = cited from earlier work
# [2] = cited from earlier work; remark: listed apart in the source
# hangover = test: clinical self-experiment on hangover symptoms after alcohol consumption; format: in vivo, human; conditions: one inventor on themself; 50 mg orally (capsule) just prior to drinking, 50 mg during, 50 mg next morning; total 150 mg in fourteen hours
# Source text: The invention is based, in part, on a clinical experiment that an inventor of the invention described herein conducted on themself using SELBEX® (geranylgeranylacetone). On one occasion in the evening, they consumed an excessive amount of alcoholic beverages and awoke the following morning experiencing abdominal discomfort, nausea, fatigue, and headache. The normal measures that they had taken in the past to ameliorate hangover provided little relief. They decided that on the next occasion on which they would be drinking alcoholic beverages, they would ingest SELBEX® (geranylgeranylacetone) to determine whether it provided relief. Thus, on a subsequent evening, just prior to the drinking of alcoholic beverages, they ingested 50 mg of SELBEX® (geranylgeranylacetone) orally, in the form of a capsule marketed commercially by Eisai Co., Ltd. During the course of the evening, as they continued drinking alcoholic beverages, they ingested an additional 50 mg of SELBEX® (geranylgeranylacetone) orally. The next morning when they awoke, they ingested an additional 50 mg of SELBEX® (geranylgeranylacetone), bringing the total ingested during a fourteen hour period to 150 mg.
structure (smiles),measurement,setting,value
"CC(=O)CC/C=C(\C)CC/C=C(\C)CC/C=C(\C)CCC=C(C)C [SELBEX® (geranylgeranylacetone), 3:2 (5E:5Z) geometrical mixture of (9E,13E)-6,10,14,18-tetramethyl-5,9,13,17-nonadecatetraen-2-one]",miscibility with organic solvents,"[1]; methanol, ethanol, acetone, chloroform, and hexane",miscible
same,solubility in water,[1]; water,practically insoluble
same,stability to air,[2],affected by air
same,"symptoms of hangover (abdominal discomfort, nausea, fatigue, and headache)",hangover,either abolished or markedly alleviated
